# Experimental data published in EPA's ToxValDB 9.5 (doi:10.2903/j.efsa.2006.82r).
# Experiments:
# [1] = tested on: Anas platyrhynchos; settings: for LD50: oral, mortality
# [2] = tested on: Bird; settings: acute; oral; unspecified; mortality
# [3] = tested on: Canidae; settings: oral, Dog Other, organ weight
# [4] = tested on: Rattus norvegicus
# [5] = tested on: Trichogramma cacoeciae; settings: not reported; mortality
# [6] = tested on: Tagia sp.
# [7] = tested on: Colinus virginianus; settings: for LD50: acute, oral, mortality
# [8] = tested on: Oncorhynchus mykiss
# [9] = tested on: Apis mellifera; settings: acute; duration: 48 hours; oral; unspecified; mortality
smiles,measurement,setting,value
COc1ccc(C(=CC(=O)N2CCOCC2)c2ccc(Cl)cc2)cc1OC [Dimethomorph],LD50,"[1]; acute, unspecified",> 2000 mg/kg
same,NOEL,[1]; reproductive,78.4 mg/kg-day
same,LD50,"[1]; short-term, feed",> 938 mg/kg-day
same,LD50,[2],3900 mg/kg
same,NOAEL,"[3]; chronic, duration: 1 years, M/F",4.9 mg/kg-day
same,NOAEL,"[3]; subchronic, duration: 90 days",15 mg/kg-day
same,NOAEL,"[4]; developmental, development",60 mg/kg-day
same,NOAEL,"[4]; subchronic, duration: 90 days, oral",16 mg/kg-day
same,LEL,[5],115 g/ha
same,LC50,"[6]; acute, duration: 14 days, mortality",> 1000 mg/kg
same,NOEC,"[6]; chronic/long-term, duration: 8 weeks, reproduction",≥ 120 mg/kg
same,LD50,[7]; diet,> 728 mg/kg-day
same,LD50,[7],> 2000 mg/kg
same,NOEL,[7]; reproduction developmental,58.4 mg/kg-day
same,LC50,"[8]; acute, duration: 96 hours, mortality",3.4 µg/mL
same,NOEC,"[8]; chronic/long-term, duration: 96 days, development",0.056 mg/L
same,LD50,[9],> 32.4 µg/piece
